Reference: ChEMBL document CHEMBL1149115, “Unraveling the active conformation of urotensin II” (J Med Chem, 2004)

Assay: Effective concentration of compound in producing vasoconstrictions was determined
Type: functional
CC(C)[C@H](NC(=O)[C@@H]1NC(=O)[C@H](Cc2ccc(O)cc2)NC(=O)[C@H](CCCCN)NC(=O)[C@H](Cc2c[nH]c3ccccc23)NC(=O)[C@H](Cc2ccccc2)NC(=O)[C@@H](NC(=O)[C@@H](N)CC(=O)O)CSSC1(C)C)C(=O)O gave a pD2 of 6.7.
With CC(C)[C@H](NC(=O)[C@@H]1NC(=O)[C@H](Cc2ccc(O)cc2)NC(=O)[C@H](CCCCN)NC(=O)[C@H](Cc2c[nH]c3ccccc23)NC(=O)[C@H](Cc2ccccc2)NC(=O)[C@H](NC(=O)[C@@H](N)CC(=O)O)C(C)(C)SSC1(C)C)C(=O)O the pD2 was 8.2.
Molecule CC(C)[C@H](NC(=O)[C@@H]1CSSC[C@@H](NC(=O)[C@@H](N)CC(=O)O)C(=O)N[C@@H](Cc2ccccc2)C(=O)N[C@@H](Cc2c[nH]c3ccccc23)C(=O)N[C@@H](CCCCN)C(=O)N[C@@H](Cc2ccc(O)cc2)C(=O)N1)C(=O)O has a pD2 of 8.6.
In the case of CC(C)[C@H](NC(=O)[C@@H]1CSSC(C)(C)[C@@H](NC(=O)[C@@H](N)CC(=O)O)C(=O)N[C@@H](Cc2ccccc2)C(=O)N[C@@H](Cc2c[nH]c3ccccc23)C(=O)N[C@@H](CCCCN)C(=O)N[C@@H](Cc2ccc(O)cc2)C(=O)N1)C(=O)O, the pD2 is reported as 9.6.
For CC(C)[C@H](NC(=O)[C@@H]1CCSSC[C@H](NC(=O)[C@@H](N)CC(=O)O)C(=O)N[C@@H](Cc2ccccc2)C(=O)N[C@@H](Cc2c[nH]c3ccccc23)C(=O)N[C@@H](CCCCN)C(=O)N[C@@H](Cc2ccc(O)cc2)C(=O)N1)C(=O)O, the pD2 was < 6.5.
CC(C)[C@H](NC(=O)[C@@H]1CSSC[C@@H](NC(=O)[C@H](CC(=O)O)NC(=O)[C@H]2CCCN2C(=O)[C@@H](NC(=O)[C@@H](N)CCC(=O)O)[C@@H](C)O)C(=O)N[C@H](Cc2ccccc2)C(=O)N[C@@H](Cc2c[nH]c3ccccc23)C(=O)N[C@H](CCCCN)C(=O)N[C@@H](Cc2ccc(O)cc2)C(=O)N1)C(=O)O gave a pD2 of 8.3.
